Results reported in the Kinase Knowledgebase extract (Sharma et al. 2016).

These molecules were tested against PIK3CA (human) (UniProt P42336) (assay: Cell-Based Assay). Conditions: mda-mb-361.
Chain of PIK3CA (human) (P42336 whole entry, looked up): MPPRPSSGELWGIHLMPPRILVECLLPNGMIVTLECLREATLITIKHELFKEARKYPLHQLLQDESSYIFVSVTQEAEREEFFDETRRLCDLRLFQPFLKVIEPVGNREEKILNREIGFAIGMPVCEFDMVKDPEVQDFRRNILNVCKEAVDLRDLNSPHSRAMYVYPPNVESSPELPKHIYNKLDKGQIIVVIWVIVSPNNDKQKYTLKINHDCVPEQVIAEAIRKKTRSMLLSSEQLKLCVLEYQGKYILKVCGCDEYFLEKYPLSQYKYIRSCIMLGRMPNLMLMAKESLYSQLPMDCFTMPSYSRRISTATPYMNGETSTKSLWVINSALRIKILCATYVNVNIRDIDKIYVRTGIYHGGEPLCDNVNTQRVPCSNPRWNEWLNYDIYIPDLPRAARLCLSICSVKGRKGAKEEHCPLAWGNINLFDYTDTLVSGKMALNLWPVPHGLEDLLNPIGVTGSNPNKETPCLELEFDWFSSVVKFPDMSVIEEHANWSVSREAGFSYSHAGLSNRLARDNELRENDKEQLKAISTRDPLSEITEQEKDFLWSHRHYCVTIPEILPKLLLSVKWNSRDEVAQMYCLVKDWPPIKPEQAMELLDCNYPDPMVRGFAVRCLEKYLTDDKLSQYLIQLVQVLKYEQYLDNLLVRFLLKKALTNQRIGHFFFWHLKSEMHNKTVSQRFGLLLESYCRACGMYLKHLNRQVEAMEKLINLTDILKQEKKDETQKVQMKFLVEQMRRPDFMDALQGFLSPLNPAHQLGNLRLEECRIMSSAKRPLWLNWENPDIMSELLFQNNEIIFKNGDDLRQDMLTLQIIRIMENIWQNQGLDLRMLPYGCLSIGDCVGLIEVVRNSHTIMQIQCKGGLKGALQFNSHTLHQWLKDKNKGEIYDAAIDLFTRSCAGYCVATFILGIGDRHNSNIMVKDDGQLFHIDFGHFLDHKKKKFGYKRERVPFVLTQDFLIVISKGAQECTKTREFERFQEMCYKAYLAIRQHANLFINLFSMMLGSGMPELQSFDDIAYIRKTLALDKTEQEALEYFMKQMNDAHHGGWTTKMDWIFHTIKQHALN

Row | IC50 [nM] | Structure (SMILES)
1 | > 10000 | Nc1nc2cc(-c3ccc4ncc(N5CC(N6CCNCC6)C5)nc4n3)ccc2o1
2 | 100 to 1000 | C[C@@H]1CN(C2CN(c3cnc4ccc(-c5ccc6oc(N)nc6c5)nc4c3)C2)CCN1C
3 | 100 to 1000 | Nc1nc2cc(-c3ccc4ncc(N5CC(N6CCN(CCO)CC6)C5)cc4n3)ccc2o1
4 | 100 to 1000 | Nc1nc2cc(-c3ccc4ncc(N5CCN(C(=O)C6(N)CC6)CC5)cc4n3)ccc2o1
5 | 100 to 1000 | C[C@@H]1CN(C2CN(c3cnc4ccc(-c5ccc6oc(N)nc6c5)nc4c3)C2)CCN1
6 | 100 to 1000 | Nc1nc2cc(-c3ccc4ncc(N5CC(N6CCN(CC7CC7)CC6)C5)cc4n3)ccc2o1
7 | 100 to 1000 | CC(C)N1CCN(C2CN(c3cnc4ccc(-c5ccc6oc(N)nc6c5)nc4c3)C2)CC1
8 | 100 to 1000 | CCN1CCN(C2CN(c3cnc4ccc(-c5ccc6oc(N)nc6c5)nc4c3)C2)CC1
9 | 100 to 1000 | C[C@H]1CN(C2CN(c3cnc4ccc(-c5ccc6oc(N)nc6c5)nc4c3)C2)CCN1C
10 | 100 to 1000 | CN1CCN(C2CN(c3cnc4ccc(-c5ccc6oc(N)nc6c5)nc4c3)C2)CC1=O
11 | 100 to 1000 | CCOC(=O)N1CCN(c2cnc3ccc(-c4ccc5oc(N)nc5c4)nc3c2)CC1
12 | 100 to 1000 | C[C@H]1CN(C2CN(c3cnc4ccc(-c5ccc6oc(N)nc6c5)nc4c3)C2)CCN1
13 | 100 to 1000 | CC(C)(N)C(=O)N1CCN(c2cnc3ccc(-c4ccc5oc(N)nc5c4)nc3c2)CC1
14 | 100 to 1000 | CN1CCN(C2CN(c3cnc4ccc(-c5ccc6oc(N)nc6c5)nc4c3)C2)CC1
15 | 100 to 1000 | CC1(C)CN(C2CN(c3cnc4ccc(-c5ccc6oc(N)nc6c5)nc4c3)C2)CCN1
16 | 100 to 1000 | Nc1nc2cc(-c3ccc4ncc(N5CC6CCC(C5)O6)cc4n3)ccc2o1

The remaining lines, values behind:

Row | Structure (SMILES) | IC50 [nM]
17 | Nc1nc2cc(-c3ccc4ncc(N5CCOCC5)nc4n3)ccc2o1 | 100 to 1000
18 | C[C@@H]1COCCN1c1cnc2ccc(-c3ccc4oc(N)nc4c3)nc2n1 | 100 to 1000
19 | CC1(C)CN(C2CN(c3cnc4ccc(-c5ccc6oc(N)nc6c5)nc4n3)C2)CCN1 | 100 to 1000
20 | Nc1nc2cc(-c3ccc4ncc(N5CCC(O)CC5)nc4n3)ccc2o1 | 100 to 1000
21 | Nc1nc2cc(-c3ccc4ncc(N5C6CCC5COC6)nc4n3)ccc2o1 | 100 to 1000
22 | Nc1nc2cc(-c3ccc4ncc(N5CCNC(=O)C5)nc4n3)ccc2o1 | 100 to 1000
23 | CCOC(=O)N1CC=C(c2cnc3ccc(-c4ccc5oc(N)nc5c4)nc3n2)CC1 | 100 to 1000
24 | C[C@H]1COCCN1c1cnc2ccc(-c3ccc4oc(N)nc4c3)nc2n1 | 100 to 1000

Same assay, conditions: pc3

Row | IC50 [nM] | Structure (SMILES)
25 | < 100 | Cn1c(=O)n(-c2ccc(C(C)(C)C#N)cc2)c2c3cc(-c4ccc5oc(N)nc5c4)ccc3ncc21
26 | 100 to 1000 | Nc1nc2cc(-c3ccc4ncc(C(=O)N5CC(F)(F)C5)n4c3)ccc2o1
27 | 100 to 1000 | O=C(c1cnc2ccc(-c3cnc(Cl)c(NS(=O)(=O)c4ccccc4)c3)cn12)N1CCOCC1
28 | 100 to 1000 | C[C@H]1CN(C2CN(C(=O)c3cnc4ccc(-c5ccc6oc(N)nc6c5)cn34)C2)CCN1C
29 | 100 to 1000 | COc1ncc(-c2ccc3ncc(C(=O)N4CCOCC4)n3c2)cc1NS(=O)(=O)c1cccnc1
30 | 100 to 1000 | Nc1nc2cc(-c3ccc4ncc(C(=O)N5CC[C@H](n6cccn6)C5)n4c3)ccc2o1
31 | 100 to 1000 | CN1CCC(N(C)C(=O)c2cnc3ccc(-c4ccc5oc(N)nc5c4)cn23)CC1
32 | 100 to 1000 | COC1CN(C(=O)c2cnc3ccc(-c4ccc5oc(N)nc5c4)cn23)C1
33 | 100 to 1000 | C[C@@H]1CN(C2CN(C(=O)c3cnc4ccc(-c5ccc6oc(N)nc6c5)cn34)C2)CCN1C
34 | 100 to 1000 | COc1ncc(-c2ccc3ncn(C4CCN(C(C)C)CC4)c(=O)c3c2)cc1NS(=O)(=O)c1ccccc1
35 | 100 to 1000 | COc1ncc(-c2ccc3ncn(C4CCN(C)CC4)c(=O)c3c2)cc1NS(=O)(=O)c1ccccc1
36 | < 100 | CC(=O)Nc1cn2cc(-c3ccc4oc(N)nc4c3)ccc2n1

Same assay, conditions: t47d

Row | IC50 [nM] | Structure (SMILES)
37 | 100 to 1000 | Nc1nc2cc(-c3ccc4ncc(N5CC(N6CCN(CC7CC7)CC6)C5)nc4c3)ccc2o1
38 | 100 to 1000 | Nc1nc2cc(-c3ccc4ncc(N5CC(N6CCS(=O)(=O)CC6)C5)nc4c3)ccc2o1
39 | 100 to 1000 | Nc1nc2cc(-c3ccc4ncc(N5CC(C(=O)N6CCN(C7CC7)CC6)C5)nc4c3)ccc2o1
40 | 100 to 1000 | Nc1nc2cc(-c3ccc4ncc(N5CCN(CC6CC6)CC5)nc4c3)ccc2o1
41 | 100 to 1000 | Nc1nc2cc(-c3ccc4ncc(N5CCN(CCO)CC5)nc4c3)ccc2o1
42 | 100 to 1000 | CN1CCN(CCNc2cnc3ccc(-c4ccc5oc(N)nc5c4)cc3n2)CC1

Second part, the molecule before the results:

Row | Structure (SMILES) | IC50 [nM]
43 | Nc1nc2cc(-c3ccc4ncc(C(=O)NCCCN5CCCC5)n4c3)ccc2o1 | 100 to 1000
44 | Nc1nc2cc(-c3ccc4ncc(N5CCNC(=O)C5)nc4c3)ccc2o1 | 100 to 1000
45 | CN1CC(C(=O)N2CCC(Nc3ncnc4ccc(-c5ccc6oc(N)nc6c5)cc34)CC2)C1 | > 10000
46 | Nc1nc2cc(-c3ccc4ncc(N5CCOCC5)nc4c3)ccc2s1 | 100 to 1000
47 | CCNC(=O)c1cnc2ccc(-c3ccc4oc(N)nc4c3)cn12 | 100 to 1000
48 | CC(N)C(=O)N1CCN(c2cnc3ccc(-c4ccc5oc(N)nc5c4)cc3n2)CC1 (configuration not stated) | 100 to 1000
49 | Nc1nc2cc(-c3ccn4ncc(-c5ccncc5)c4c3)ccc2o1 | 100 to 1000
50 | CN1CCN(C2CN(C(=O)c3cnc4ccc(-c5ccc6oc(N)nc6c5)cn34)C2)CC1 | 100 to 1000
51 | Nc1nc2cc(-c3ccc4ncc(C(=O)Nc5cccnc5)n4c3)ccc2o1 | > 10000
52 | C[C@H]1CN(C(=O)C2CN(c3cnc4ccc(-c5ccc6oc(N)nc6c5)cc4n3)C2)CCN1 | 100 to 1000
53 | Nc1nc2cc(-c3ccc4ncnc(OC5CCOCC5)c4c3)ccc2o1 | 100 to 1000
54 | Nc1nc2cc(-c3ccc4ncc(N5CCCC5)nc4c3)ccc2o1 | 100 to 1000
55 | Nc1nc2cc(-c3ccc4ncc(-c5cnn(CCO)c5)nc4c3)ccc2o1 | 100 to 1000
56 | CCN(CC)CC(=O)N1CCN(c2cnc3ccc(-c4ccc5oc(N)nc5c4)cc3n2)CC1 | 100 to 1000
57 | CN1CCN(c2cnc3ccc(-c4ccc5oc(N)nc5c4)cc3n2)CC1=O | 100 to 1000
58 | CNC(=O)CN1CCN(c2cnc3ccc(-c4ccc5oc(N)nc5c4)cc3n2)CC1 | 100 to 1000
59 | Nc1nc2cc(-c3ccc4ncc(N5CCCCC5)nc4c3)ccc2o1 | > 10000
60 | Nc1nc2cc(-c3ccc4nnc(C(=O)N5CCOCC5)n4c3)ccc2o1 | > 10000
61 | Nc1nc2cc(-c3ccc4ncc(N5CCN(C(=O)[C@@H]6CCCN6)CC5)nc4c3)ccc2o1 | 100 to 1000
62 | CC1CN(c2cnc3ccc(-c4ccc5oc(N)nc5c4)cc3n2)CCN1 (configuration not stated) | > 10000
63 | C[C@H](N)C(=O)N1CCN(c2cnc3ccc(-c4ccc5oc(N)nc5c4)cc3n2)CC1 | 100 to 1000
64 | CNC(=O)N1CCN(c2cnc3ccc(-c4ccc5oc(N)nc5c4)cc3n2)CC1 | 100 to 1000
65 | CN1CCN(C(=O)C2CN(c3cnc4ccc(-c5ccc6oc(N)nc6c5)cc4n3)C2)CC1 | 100 to 1000
66 | CN1CCC(Nc2ncnc3ccc(-c4ccc5oc(N)nc5c4)nc23)CC1 | 100 to 1000
67 | Nc1nc2cc(-c3ccc4ncc(N5CCN(C(=O)[C@H](N)CO)CC5)nc4c3)ccc2o1 | 100 to 1000
68 | CN1CC(C(=O)N2CCN(c3cnc4ccc(-c5ccc6oc(N)nc6c5)cc4n3)CC2)C1 | 100 to 1000
69 | CC(=O)Nc1cn2cc(-c3ccc4oc(N)nc4c3)ccc2n1 | 100 to 1000
70 | Nc1nc2cc(-c3ccc4ncc(C(=O)N5CC[C@@H](O)C5)n4c3)ccc2o1 | 100 to 1000
71 | C[C@@H]1CN(C(=O)C2CN(c3cnc4ccc(-c5ccc6oc(N)nc6c5)cc4n3)C2)CCN1 | 100 to 1000
72 | CC(C)(N)C(=O)N1CCN(c2cnc3ccc(-c4ccc5oc(N)nc5c4)cc3n2)CC1 | 100 to 1000
